The values below come from ChEMBL document CHEMBL1201862, “PubChem BioAssay data set” (2004).

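Following 48 hours of exposure in 96-well plates, responses at five concentrations were used to interpolate endpoints linearly. GI50 is the concentration that inhibits growth by half.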 Activity calls are given as the source filed them. No stated cut-off is given here; in the data, active = GI50 up to about 1.1 µM and inactive = higher. Some results are limits rather than exact numbers.

Test systems include RXF 631; SNB-78; DMS-114; KM-20L2; M19-MEL; HOP-18; LXFL 529; XF498; BT-549.
What all share (experiment): NCI-60 cell line screen, 48 h

Regarding `O=S(=O)(N/N=C\c1c2ccccc2[n+]([O-])c2ccccc12)c1ccc(Cl)cc1`, the GI50 in the test with RXF 631 was > 100 µM (inactive); with SNB-78, > 100 µM (inactive); with DMS-114, > 100 µM (inactive); in the test with KM-20L2 it was > 100 µM (inactive); in the test with M19-MEL, > 100 µM (inactive); with HOP-18, 32.4 µM (inactive). In addition, the GI50 with LXFL 529 is > 100 µM (inactive).

With `O=C(O)C12C3C4C1C1C2C3C41I` (centres undefined), the GI50 in the test on XF498, in the test with RXF 631, in the test with SNB-78, in the test with DMS-114, in the test with KM-20L2 and in the test with M19-MEL was > 100 µM (inactive) throughout. Moreover, in the test on LXFL 529, the GI50 was > 100 µM (inactive).

Regarding `COC(=O)CC[C@@H](NC(=O)C(C)NC(=O)COC1C(O)C(COC(=O)CCCCCCCCCCNC(=O)c2ccc([N+](=O)[O-])c3[nH]c4cc(Br)ccc4c(=O)c23)OC(OCc2ccccc2)C1NC(C)=O)C(N)=O` (some centres undefined), the GI50 in the test on XF498 is > 100 µM (inactive); in the test with SNB-78, 71.8 µM (inactive); in the test on DMS-114 it was 35.6 µM (inactive); with KM-20L2, > 100 µM (inactive); with M19-MEL, 50.8 µM (inactive); in the test on HOP-18, 35.7 µM (inactive). The GI50 in the test on LXFL 529 is 26.2 µM (inactive).

With `CSc1ccc2c(cc1=O)[C@@H](NC(=O)c1cc(O)c(O)c(O)c1)CCc1cc(O)c(O)c(O)c1-2`, the GI50 in the test with XF498 is 15.4 µM (inactive); with RXF 631, 15.5 µM (inactive); in the test with SNB-78, 31 µM (inactive); in the test on KM-20L2, 68.7 µM (inactive); in the test with M19-MEL it was 14.6 µM (inactive); in the test on LXFL 529 it was 18.9 µM (inactive).

`O=C1C(Cl)=C(Cl)C(=O)N1c1ccc(Cl)c(Cl)c1Cl`: the GI50 was > 100 µM (inactive) with RXF 631; > 100 µM (inactive) in the test on SNB-78; 32.7 µM (inactive) in the test on DMS-114; > 100 µM (inactive) in the test with KM-20L2; 88.3 µM (inactive) with M19-MEL; > 100 µM (inactive) in the test on HOP-18. Moreover, the GI50 in the test with LXFL 529 is 28.1 µM (inactive).

With `O=c1/c(=C/c2ccco2)sc2nc3ccccc3n12`, the GI50 in the test with XF498, in the test with RXF 631, in the test on SNB-78, in the test with DMS-114, in the test on KM-20L2 and in the test with M19-MEL was > 10 µM (inactive) in each case. Also, the GI50 in the test on HOP-18 is > 100 µM (inactive); in the test on LXFL 529, > 10 µM (inactive).

Consider `Cc1cc(=O)oc2c1cc(OCC(=O)OCCN1CCCCC1)c1occ(C)c12`, for which the GI50 with XF498, in the test on SNB-78, with DMS-114, in the test with KM-20L2, with M19-MEL and in the test with HOP-18 was > 100 µM (inactive) throughout. Further, the GI50 in the test with LXFL 529 was > 100 µM (inactive).

In the case of `COc1ccc(S(=O)(=O)N/N=C(\C)CN2C(=O)c3ccccc3C2=O)cc1OC`, the GI50 in the test with XF498, with SNB-78, with DMS-114, in the test on KM-20L2, in the test on M19-MEL and in the test on HOP-18 was > 100 µM (inactive) each time. The GI50 in the test on LXFL 529 is > 100 µM (inactive).

In the case of `c1ccc([S+](c2ccccc2)c2ccc(Sc3ccc([S+](c4ccccc4)c4ccccc4)cc3)cc2)cc1`, the GI50 is 11.4 µM (inactive) in the test with XF498; 58.2 µM (inactive) in the test with RXF 631; 27.9 µM (inactive) with SNB-78; 3.2 µM (inactive) with DMS-114; 16.8 µM (inactive) in the test with KM-20L2; 18.1 µM (inactive) with M19-MEL. Further, the results for the GI50 in the test with HOP-18 and with LXFL 529 were 30.5 µM (inactive) and 18 µM (inactive), respectively.

As to `S=c1c2ccccc2c(=S)n2n1CC=CC2`, the GI50 with RXF 631, in the test with SNB-78, with DMS-114, in the test with KM-20L2, in the test with M19-MEL and with HOP-18 was > 100 µM (inactive) in each case. The GI50 with LXFL 529 is > 100 µM (inactive).

Turning to `CC(NS(=O)(=O)c1ccc(Cl)cc1)C(=O)O` (centres undefined), the GI50 in the test on XF498 was 66.7 µM (inactive); in the test on KM-20L2, > 100 µM (inactive); in the test with M19-MEL it was > 100 µM (inactive); with HOP-18, > 100 µM (inactive); in the test on LXFL 529, > 100 µM (inactive).

As for `NC(=O)COc1ccc(Br)cc1Br`, the GI50 with SNB-78, with DMS-114, in the test on KM-20L2, with M19-MEL, in the test on HOP-18 and in the test with LXFL 529 was > 100 µM (inactive) in each case.

For `O=C(NC(=O)c1ccccc1[N+](=O)[O-])Nc1ccc(Oc2ncc(Cl)cn2)c([N+](=O)[O-])c1`, the GI50 with XF498 is 0.818 µM (active); in the test on RXF 631, 0.286 µM (active); with SNB-78 it was 0.252 µM (active); in the test with DMS-114 it was 0.0865 µM (active); in the test with BT-549, 31.5 µM (inactive); in the test on KM-20L2, 0.121 µM (active). Moreover, the GI50 in the test on M19-MEL is 0.135 µM (active); with HOP-18 it was > 100 µM (inactive); with LXFL 529, 0.217 µM (active).

As for `Cc1ccc(S(=O)(=O)N/N=C(\c2nc3ccc([N+](=O)[O-])cc3nc2O)C(O)c2ccccc2Cl)cc1` (centres undefined), the GI50 in the test with RXF 631 was > 100 µM (inactive); in the test with SNB-78, > 100 µM (inactive); in the test with DMS-114, 16.7 µM (inactive); with KM-20L2, > 100 µM (inactive); with M19-MEL it was 86.9 µM (inactive); in the test on HOP-18, > 100 µM (inactive). Also, the GI50 in the test on LXFL 529 was 35.8 µM (inactive).

Take `O=c1[nH]c2ccccc2nc1CBr`: the GI50 is 1.9 µM (inactive) in the test on XF498; 16.1 µM (inactive) in the test with SNB-78; 9.27 µM (inactive) in the test with BT-549; 14.1 µM (inactive) in the test with KM-20L2; 10.2 µM (inactive) in the test on M19-MEL; 6.93 µM (inactive) with HOP-18. Moreover, in the test on LXFL 529, the GI50 was 1.12 µM (active).

As to `CCC1(OC(C)=O)C(=O)OCc2c1cc1n(c2=O)Cc2cc3ccccc3nc2-1` (centres undefined), the GI50 in the test with XF498 is 17.9 µM (inactive); with RXF 631, 3.85 µM (inactive); with SNB-78, > 40.9 µM (inactive); with DMS-114, 0.611 µM (active); with KM-20L2, 7.01 µM (inactive); in the test with M19-MEL, 2.48 µM (inactive). The GI50 in the test on HOP-18 is > 34.8 µM (inactive); in the test on LXFL 529, 15 µM (inactive).

Consider `N/N=C(\c1nc2ccc(Cl)cc2nc1O)C(O)c1ccc(Cl)c(Cl)c1` (centres undefined), for which the GI50 with XF498, in the test on RXF 631, in the test with SNB-78, with DMS-114, in the test on KM-20L2 and in the test with M19-MEL was > 100 µM (inactive) each time. Moreover, in the test on LXFL 529, the GI50 was > 100 µM (inactive).

In the case of `C=C1CC2C(=O)N(c3ccccc3)C(=O)C2CC1n1[nH]c(=O)n(Cc2ccccc2)c1=O` (centres undefined), the GI50 in the test on XF498, in the test with SNB-78, in the test on KM-20L2, in the test with M19-MEL, in the test with HOP-18 and in the test with LXFL 529 was > 100 µM (inactive) throughout.

In the case of `COC(=O)C(C(=O)C(=O)Nc1ccccc1C)c1nc2ccc([N+](=O)[O-])cc2nc1O` (centres undefined), the GI50 with XF498, with SNB-78, with DMS-114, in the test with KM-20L2, with M19-MEL and in the test on HOP-18 was > 100 µM (inactive) in each case. Further, the GI50 in the test with LXFL 529 is > 100 µM (inactive).

With `COc1ccccc1NC(=O)C(=O)C1C(=O)Nc2ccccc2[S+]1[O-]` (centres undefined), the GI50 with XF498, with RXF 631, in the test with SNB-78, with DMS-114, with KM-20L2 and with M19-MEL was > 100 µM (inactive) throughout. For the same compound, the GI50 with HOP-18 and with LXFL 529 was > 100 µM (inactive) throughout.

Take `CC1(C)OC(C[C@]2(C#N)C[C@H](CCl)OC(C)(C)O2)C[C@@H](C[C@]2(C#N)C[C@H](CCl)OC(C)(C)O2)O1` (some centres undefined): the GI50 in the test with XF498, in the test on SNB-78, in the test on KM-20L2, in the test on M19-MEL, in the test with HOP-18 and in the test on LXFL 529 was > 100 µM (inactive) in each case.

Consider `CCCCCCc1cc2c(C)c(C)c(=O)oc2cc1OCCCOc1cc2oc(=O)c(C)c(C)c2cc1CCCCCC`, for which the GI50 with XF498, with SNB-78, in the test on DMS-114, with KM-20L2, with M19-MEL and in the test with HOP-18 was > 100 µM (inactive) each time. For the same compound, the GI50 in the test with LXFL 529 was > 100 µM (inactive).
